Data as given in patent US9439430B2, “Method of controlling resistant harmful plants” (priority 2012, dated 2016).

Tests used:
EPHHL = test: Greenhouse test, post-emergence (PO) application, foliar effect; assay type: in vivo, Euphorbia heterophylla; settings: (A) 50, (B) 20, mixture 50 + 20 g of AS/ha, 3 weeks after application
From the text: (§1) The 1:1 mixture of the two soil types was used specifically for cultivating small-seeded dicotyledonous weed since the standard field soil on its own tends to silt up, which may have an adverse effect on the emergence of small-seeded weeds. The resistances mentioned in the tables were confirmed beforehand in standard monitoring experiments. Nevertheless, the origins examined may have additional, hitherto unconfirmed resistances to various mechanisms of action.
(§2) The pots were then cultivated in a greenhouse (12-16 h light, temperature day 20-22° C., night 15-18° C.) until the time of application. The pots were treated at various BBCH stages of the seeds/plants on a laboratory track sprayer with spray liquors comprising the compositions according to the invention, mixtures of the prior art or the individual components. Application of the active compounds or active compound combinations and wetting agents formulated as WG, WP, EC or otherwise was carried out at the appropriate growth stages of the plants. The amount of water used for spray application was 100-600 l/ha. After the treatment, the plants were returned to the greenhouses and fertilized and watered as required. The pots were cultivated in a greenhouse (12-16 h light, temperature day 20-22° C., night 15-18° C.).
(§3) 3 weeks after the application, the foliar effect was evaluated on a scale of 0-100%:
(§4) 0%=no noticeable effect compared to untreated plants
(§5) 100%=full effect compared to untreated plants
(§6) The following abbreviations were used: • BBCH the BBCH code provides information about the morphological development stage of a plant. Officially, the abbreviation denotes the Biologische Bundesanstalt, Bundessortenamt and CHemische Industrie [Federal Biological Institute for Agriculture and Forestry, Federal Office for Crop Plant Varieties, Chemical Industry]. The range of BBCH 00-10 denotes the germination stages of the seeds until surface penetration. The range of BBCH 11-25 denotes the leaf development stages until stocking (corresponds to the number of tillers or side-shoots). • PE pre-emergence soil application; BBCH of the seeds/plants 00-10 • PO post-emergence application on the green parts of the plants; BBCH of the plants 11-25 • IU soil loamy silt—standard field soil • l/ha liters per hectare • S sensitive—the weed populations are sensitive to the active compounds tested • TSR target-site resistance. The weed populations comprise biotypes having a site-of-action-specific resistance, i.e. the binding site at the site of action is modified as a result of natural mutations in the gene sequence so that the active compounds are no longer able to bind, or bind in an unsatisfactory manner, and are therefore no longer able to act. • NTR non-target-site herbicide resistance; this is differentiated, inter alia, into EMR (Enhanced Metabolic Resistance) (the weed populations comprise biotypes having metabolic resistance, i.e. the plants are capable of metabolizing the active compounds more quickly via enzyme complexes, i.e. the active compounds are degraded more quickly in the plant), into reduced penetration into the plant, reduced translocation in the plant, accelerated excretion. […]

BRODI = test: Greenhouse test, pre-emergence (PE) soil application; assay type: in vivo, Bromus diformis; set-up: key: % effect: 0 = no effect, 100 = full effect vs untreated
From the text: as §1, §2, §3, §4, §5, §6

CHEAL = test: Greenhouse test, post-emergence (PO) application, foliar effect; assay type: in vivo, Chenopodium album; settings: (A) 50, (B) 20, mixture 50 + 20 g of AS/ha, 3 weeks after application
From the text: as §1, §2, §3, §4, §5, §6

[1] = tested on: TTTTT (all resistant and sensitive biotypes); test: Greenhouse test, PE application, mean over all resistant and sensitive biotypes; assay type: in vivo; settings: (A) 12.5, (B) 20, mixture 12.5 + 20 g of AS/ha; for TTTTT resistant mean (effect): mean of resistant biotypes (n = 16); for TTTTT sensitive mean (effect): mean of sensitive biotypes (n = 11)
From the text: as §1, §2, §3, §4, §5, §6

APESV = test: Greenhouse test, pre-emergence (PE) soil application; assay type: in vivo, Apera spica-venti; set-up: key: % effect: 0 = no effect, 100 = full effect vs untreated
From the text: as §1, §2, §3, §4, §5, §6

ERICA [2] = test: as above; assay type: in vivo, Erigeron canadensis; set-up: key: % effect: 0 = no effect, 100 = full effect vs untreated
From the text: as §1, §2, §3, §4, §5, §6

ALOMY [3] = test: Greenhouse test, post-emergence (PO) application, foliar effect; assay type: in vivo, Alopecurus myosuroides; settings: ALOMY sensitive, (A) 50, (B) 20, mixture 50 + 20 g of AS/ha, 3 weeks after application
From the text: as §1, §2, §3, §4, §5, §6

BIDSU = test: as above; assay type: in vivo, Bidens subalternans; settings: BIDSU sensitive, (A) 50, (B) 20, mixture 50 + 20 g of AS/ha, 3 weeks after application
From the text: as §1, §2, §3, §4, §5, §6

ALOMY [4] = test: Greenhouse test, pre-emergence (PE) soil application; assay type: in vivo, Alopecurus myosuroides
From the text: as §1, §2, §3, §4, §5, §6

ERICA [5] = test: Greenhouse test, post-emergence (PO) application, foliar effect; assay type: in vivo, Erigeron canadensis; settings: (A) 50, (B) 20, mixture 50 + 20 g of AS/ha, 3 weeks after application
From the text: as §1, §2, §3, §4, §5, §6

[6] = EPHHL resistant - group B (TSR) and G (NTR)
[7] = EPHHL resistant - group B (TSR)
[8] = group (B) compound alone, 20 g of AS/ha
[9] = CHEAL resistant - group B (TSR), C1 (NA) and G (NTR)
[10] = ERICA resistant - group B (NA) and G (NTR)

Row | SMILES | foliar effect (EPHHL; [6]) | foliar effect (EPHHL; [7]) | foliar effect (EPHHL; EPHHL sensitive) | effect on BRODI resistant - group A (TSR), B (NTR) and G (NTR) (BRODI; [8]) | effect on BRODI sensitive (BRODI; [8]) | foliar effect (CHEAL; [9]) | foliar effect (CHEAL; CHEAL sensitive) | TTTTT resistant mean (effect) [1] | TTTTT sensitive mean (effect) [1] | effect on APESV resistant - group B (TSR, NTR) and K1/3 (NA) (APESV; [8]) | effect on APESV sensitive (APESV; [8]) | effect on ERICA resistant - group B (NA) and G (NTR) (ERICA [2]; [8]) | effect on ERICA sensitive (ERICA [2]; [8]) | foliar effect (ALOMY [3]) | foliar effect (BIDSU) | effect on ALOMY sensitive (ALOMY [4]; [8]) | foliar effect (ERICA [5]; [10]) | foliar effect (ERICA [5]; ERICA sensitive) | other results
1 | COC(=O)c1csc(C)c1S(=O)(=O)NC(=O)n1nc(OC)n(C)c1=O [(B5), thiencarbazone-methyl] | 30% | 20% | 70% | 70 | 70 | 70% | 70% | 22% | 73% | 20 | 95 | 0 | 60 | 100% | 60% | 100 | 60% | 70% | 
2 | Cc1ccc2c(c1)[C@H](Nc1nc(N)nc(C(C)F)n1)[C@@H](C)C2 (stereo partly drawn) [(A), indaziflam] | 50% | 55% | 60% |  |  | 70% | 70% | 52% | 68% |  |  |  |  | 75% | 40% |  | 50% | 50% | effect on BRODI resistant - group A (TSR), B (NTR) and G (NTR) (BRODI; (A) alone, 12.5 g of AS/ha): 70; effect on BRODI sensitive (BRODI; (A) alone, 12.5 g of AS/ha): 75; effect on APESV resistant - group B (TSR, NTR) and K1/3 (NA) (APESV; (A) alone, 12.5 g of AS/ha): 70; effect on APESV sensitive (APESV; (A) alone, 12.5 g of AS/ha): 90; effect on ERICA resistant - group B (NA) and G (NTR) (ERICA [2]; (A) alone, 12.5 g of AS/ha): 60; effect on ERICA sensitive (ERICA [2]; (A) alone, 12.5 g of AS/ha): 70; effect on ALOMY sensitive (ALOMY [4]; (A) alone, 12.5 g of AS/ha): 85
3 | CCS(=O)(=O)c1cccnc1S(=O)(=O)NC(=O)Nc1nc(OC)cc(OC)n1 [(B3), rimsulfuron] | 50% | 60% | 80% | 70 | 80 | 70% | 80% | 24% | 75% | 35 | 93 | 0 | 70 | 100% | 70% | 100 | 60% | 90% | 
4 | COc1cc(OC)nc(NC(=O)NS(=O)(=O)c2cc(NC=O)ccc2C(=O)N(C)C)n1 [(B2), foramsulfuron] | 40% | 30% | 80% | 70 | 75 | 70% | 70% | 22% | 73% | 20 | 95 | 0 | 100 | 100% | 30% | 90 | 40% | 50% | 
5 | CCOC(=O)c1ccccc1S(=O)(=O)NC(=O)Nc1nc(Cl)cc(OC)n1 [(B4), chlorimuron-ethyl] | 30% | 30% | 60% | 80 | 95 | 50% | 60% | 29% | 82% | 40 | 90 | 0 | 100 | 100% | 60% | 100 | 60% | 80% | 
6 | COc1cc(OC)nc(NC(=O)NS(=O)(=O)c2ncccc2C(F)(F)F)n1 [(B1), flazasulfuron] | 40% | 30% | 80% | 70 | 80 | 70% | 80% | 32% | 75% | 40 | 85 | 0 | 70 | 100% | 70% | 100 | 50% | 90% | 
